# According to ChEMBL document CHEMBL1137563, “3,5-bis(3'-indolyl)pyrazoles, analogues of marine alkaloid nortopsentin: synthesis and antitumor properties” (2007):
# Calls of active or inactive are those of the source. The calls are words filed in the database; no cut-off is given here.
# Experiments:
# [1] = target: DNA topoisomerase 2-alpha (Homo sapiens) (UniProt P11388); assay: Inhibition of human recombinant topoisomerase 2-mediated relaxation of supercoiled plasmid pBR322 DNA at 8 uM
# SR = assay: Antitumor activity against SR cells; assay type: functional; details: Homo sapiens
# SF-268 = assay: Antitumor activity against SF268 cells; assay type: functional; details: Homo sapiens
# HCT-116 = assay: Antitumor activity against HCT116 cells; assay type: functional; details: Homo sapiens
# MDA-MB-435 = assay: Antitumor activity against MDA-MB-435 cells; assay type: functional; details: Homo sapiens
# OVCAR-4 = assay: Antitumor activity against OVCAR4 cells; assay type: functional; details: Homo sapiens
# SNB-19 = assay: Antitumor activity against SNB19 cells; assay type: functional; details: Homo sapiens
# CCRF-CEM = assay: Antitumor activity against CCRF-CEM cells; assay type: functional; details: Homo sapiens
# Hs-578T = assay: Antitumor activity against HS578T cells; assay type: functional; details: Homo sapiens
# EKVX = assay: Antitumor activity against EKVX cells; assay type: functional; details: Homo sapiens
# NCI-H226 = assay: Antitumor activity against NCI-H226 cells; assay type: functional; details: Homo sapiens
# T47D = assay: Antitumor activity against T47D cells; assay type: functional; details: Homo sapiens
# LOX IMVI = assay: Antitumor activity against LOX-IMVI cells; assay type: functional; details: Homo sapiens
# [2] = Antitumor activity against HL60(TB) cells; assay type: functional, HL-60(TB); details: Homo sapiens, HL-60
# OVCAR-5 = assay: Antitumor activity against OVCAR5 cells; assay type: functional; details: Homo sapiens
# SW-620 = assay: Antitumor activity against SW620 cells; assay type: functional; details: Homo sapiens
# UO-31 = assay: Antitumor activity against UO31 cells; assay type: functional; details: Homo sapiens
# SK-OV-3 = assay: Antitumor activity against SKOV3 cells; assay type: functional; details: Homo sapiens
# A549 = assay: Antitumor activity against A549 cells; assay type: functional; details: Homo sapiens
# TK-10 = assay: Antitumor activity against TK10 cells; assay type: functional; details: Homo sapiens
# IGROV-1 = assay: Antitumor activity against IGROV1 cells; assay type: functional; details: Homo sapiens
# HOP-62 = assay: Antitumor activity against HOP62 cells; assay type: functional; details: Homo sapiens
# NCI-H23 = assay: Antitumor activity against NCI-H23 cells; assay type: functional; details: Homo sapiens
# HT-29 = assay: Antitumor activity against HT29 cells; assay type: functional; details: Homo sapiens
# RXF 393 = assay: Antitumor activity against RXF393 cells; assay type: functional; details: Homo sapiens
# M14 = assay: Antitumor activity against M14 cells; assay type: functional; details: Homo sapiens
# NCI-H522 = assay: Antitumor activity against NCI-H522 cells; assay type: functional; details: Homo sapiens
# CAKI-1 = assay: Antitumor activity against CAKI1 cells; assay type: functional; details: Homo sapiens
# UACC-62 = assay: Antitumor activity against UACC62 cells; assay type: functional; details: Homo sapiens
# MDA-MB-231 = assay: Antitumor activity against MDA-MB-231 cells; assay type: functional; details: Homo sapiens
# NCI/ADR-RES = assay: Antitumor activity against NCI/ADRRES cells; assay type: functional; details: Homo sapiens
# A498 = assay: Antitumor activity against A498 cells; assay type: functional; details: Homo sapiens
# ACHN = assay: Antitumor activity against ACHN cells; assay type: functional; details: Homo sapiens
# SK-MEL-2 = assay: Antitumor activity against SK-MEL-2 cells; assay type: functional; details: Homo sapiens
# BT-549 = assay: Antitumor activity against BT549 cells; assay type: functional; details: Homo sapiens
# Malme-3M = assay: Antitumor activity against MALME-3M cells; assay type: functional; details: Homo sapiens
# NCI-H322M = assay: Antitumor activity against NCI-H322M cells; assay type: functional; details: Homo sapiens
# SK-MEL-28 = assay: Antitumor activity against SK-MEL-28 cells; assay type: functional; details: Homo sapiens
# HOP-92 = assay: Antitumor activity against HOP92 cells; assay type: functional; details: Homo sapiens
# PC-3 = assay: Antitumor activity against PC3 cells; assay type: functional; details: Homo sapiens
# KM12 = assay: Antitumor activity against KM12 cells; assay type: functional; details: Homo sapiens
# SF-539 = assay: Antitumor activity against SF539 cells; assay type: functional; details: Homo sapiens
# 786-0 = assay: Antitumor activity against 7860 cells; assay type: functional; details: Homo sapiens
# HCT-15 = assay: Antitumor activity against HCT15 cells; assay type: functional; details: Homo sapiens
# U-251 = assay: Antitumor activity against U251 cells; assay type: functional; details: Homo sapiens
# UACC-257 = assay: Antitumor activity against UACC257 cells; assay type: functional; details: Homo sapiens
# SK-MEL-5 = assay: Antitumor activity against SK-MEL-5 cells; assay type: functional; details: Homo sapiens
# SNB-75 = assay: Antitumor activity against SNB75 cells; assay type: functional; details: Homo sapiens
# OVCAR-8 = assay: Antitumor activity against OVCAR8 cells; assay type: functional; details: Homo sapiens
# MOLT-4 = assay: Antitumor activity against MOLT4 cells; assay type: functional; details: Homo sapiens
# MCF7 = assay: Antitumor activity against MCF7 cells; assay type: functional; details: Homo sapiens
# K562 = assay: Antitumor activity against K562 cells; assay type: functional; details: Homo sapiens
# SF-295 = assay: Antitumor activity against SF295 cells; assay type: functional; details: Homo sapiens
# HCC 2998 = assay: Antitumor activity against HCC2998 cells; assay type: functional; details: Homo sapiens
# COLO 205 = assay: Antitumor activity against COLO205 cells; assay type: functional; details: Homo sapiens
# [3] = target: DNA topoisomerase 2-alpha (Homo sapiens) (UniProt P11388); assay: Inhibition of human recombinant topoisomerase 2-mediated relaxation of supercoiled plasmid pBR322 DNA at 100 uM
# RPMI-8226 = assay: Antitumor activity against RPMI8226 cells; assay type: functional; details: Homo sapiens
# NCI-H460 = assay: Antitumor activity against NCI-H460 cells; assay type: functional; details: Homo sapiens
# DU-145 = assay: Antitumor activity against DU145 cells; assay type: functional; details: Homo sapiens
# OVCAR-3 = assay: Antitumor activity against OVCAR-3 cells; assay type: functional; details: Homo sapiens
# [4] = target: DNA topoisomerase 2-alpha (Homo sapiens) (UniProt P11388); assay: Inhibition of human recombinant topoisomerase 2-mediated relaxation of supercoiled plasmid pBR322 DNA at 50 uM
# SN12C = assay: Antitumor activity against SN12C cells; assay type: functional; details: Homo sapiens
# [5] = read-out: LC50 (the source's name)
# Chain of DNA topoisomerase 2-alpha (Homo sapiens) (P11388 whole entry): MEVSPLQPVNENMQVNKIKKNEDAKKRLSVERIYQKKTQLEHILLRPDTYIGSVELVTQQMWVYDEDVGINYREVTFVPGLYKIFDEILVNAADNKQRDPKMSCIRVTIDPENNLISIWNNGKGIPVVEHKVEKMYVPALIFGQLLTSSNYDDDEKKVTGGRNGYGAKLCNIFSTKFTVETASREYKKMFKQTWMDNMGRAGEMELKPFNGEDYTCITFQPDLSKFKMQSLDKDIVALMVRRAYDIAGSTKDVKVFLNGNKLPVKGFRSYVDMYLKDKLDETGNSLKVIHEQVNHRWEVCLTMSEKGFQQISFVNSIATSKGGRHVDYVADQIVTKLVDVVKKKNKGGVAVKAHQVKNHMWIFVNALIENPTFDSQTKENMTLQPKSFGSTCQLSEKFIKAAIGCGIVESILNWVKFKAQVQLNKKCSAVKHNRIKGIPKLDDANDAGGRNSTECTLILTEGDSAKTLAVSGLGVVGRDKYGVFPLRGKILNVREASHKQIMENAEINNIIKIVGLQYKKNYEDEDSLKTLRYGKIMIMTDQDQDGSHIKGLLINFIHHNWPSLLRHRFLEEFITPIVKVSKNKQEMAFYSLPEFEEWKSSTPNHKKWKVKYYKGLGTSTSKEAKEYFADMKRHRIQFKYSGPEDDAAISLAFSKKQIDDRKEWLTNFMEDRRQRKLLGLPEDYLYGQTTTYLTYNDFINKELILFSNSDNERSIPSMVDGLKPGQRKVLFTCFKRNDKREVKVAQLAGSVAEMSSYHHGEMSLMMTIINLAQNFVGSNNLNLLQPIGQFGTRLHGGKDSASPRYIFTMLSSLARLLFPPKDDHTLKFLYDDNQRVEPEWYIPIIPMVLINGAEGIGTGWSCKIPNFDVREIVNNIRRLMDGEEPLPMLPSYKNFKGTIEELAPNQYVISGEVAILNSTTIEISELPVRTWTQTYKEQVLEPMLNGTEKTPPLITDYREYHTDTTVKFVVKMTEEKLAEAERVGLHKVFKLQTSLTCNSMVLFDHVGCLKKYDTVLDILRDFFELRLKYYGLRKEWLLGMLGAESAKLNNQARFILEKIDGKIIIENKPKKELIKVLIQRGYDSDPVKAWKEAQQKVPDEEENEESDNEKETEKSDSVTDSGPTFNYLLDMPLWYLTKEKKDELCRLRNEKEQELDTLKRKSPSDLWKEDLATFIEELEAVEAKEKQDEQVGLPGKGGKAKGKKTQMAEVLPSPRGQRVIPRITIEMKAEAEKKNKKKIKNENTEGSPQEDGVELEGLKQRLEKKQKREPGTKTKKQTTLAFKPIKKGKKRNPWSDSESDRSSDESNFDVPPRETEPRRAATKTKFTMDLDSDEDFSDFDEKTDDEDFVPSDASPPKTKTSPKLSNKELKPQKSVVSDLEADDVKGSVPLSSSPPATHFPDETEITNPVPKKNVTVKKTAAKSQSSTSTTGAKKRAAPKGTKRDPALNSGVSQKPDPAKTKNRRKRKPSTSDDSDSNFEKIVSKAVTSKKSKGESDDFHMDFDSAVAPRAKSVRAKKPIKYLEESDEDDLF
smiles,measurement,setting,value
COc1cc(NS(C)(=O)=O)ccc1Nc1c2ccccc2nc2ccccc12,Activity,[1],Active
Cn1cc(-c2cc(-c3cn(C)c4ccc(Cl)cc34)[nH]n2)c2cc(Cl)ccc21,GI50,SR,2.36 µM
same,GI50,SF-268,5.29 µM
same,GI50,HCT-116,3.82 µM
same,GI50,MDA-MB-435,2.99 µM
same,GI50,OVCAR-4,5.82 µM
same,GI50,SNB-19,4.09 µM
same,GI50,CCRF-CEM,6.4 µM
same,GI50,Hs-578T,3.27 µM
same,GI50,EKVX,3.15 µM
same,GI50,NCI-H226,5.29 µM
same,GI50,T47D,4.06 µM
same,GI50,LOX IMVI,1.7 µM
same,TGI,LOX IMVI,3.8 µM
same,CC50,LOX IMVI; [5],8.53 µM
same,GI50,[2],4.45 µM
same,GI50,OVCAR-5,3.11 µM
same,GI50,SW-620,3.52 µM
same,GI50,UO-31,3.01 µM
same,GI50,SK-OV-3,5.81 µM
same,GI50,A549,3.24 µM
same,GI50,TK-10,5.16 µM
same,GI50,IGROV-1,2.55 µM
same,GI50,HOP-62,7.98 µM
same,GI50,NCI-H23,2.49 µM
same,GI50,HT-29,3.57 µM
same,GI50,RXF 393,3.03 µM
same,GI50,M14,2.15 µM
same,GI50,NCI-H522,1.75 µM
same,GI50,CAKI-1,1.7 µM
same,GI50,UACC-62,1.63 µM
same,GI50,MDA-MB-231,2.95 µM
same,GI50,NCI/ADR-RES,2.25 µM
same,GI50,A498,2.44 µM
same,GI50,ACHN,3.23 µM
same,GI50,SK-MEL-2,2.34 µM
same,GI50,BT-549,2.03 µM
same,GI50,Malme-3M,9.64 µM
same,GI50,NCI-H322M,5.73 µM
same,GI50,SK-MEL-28,4.8 µM
same,GI50,HOP-92,1.86 µM
same,GI50,PC-3,3.05 µM
same,GI50,KM12,3.45 µM
same,GI50,SF-539,1.81 µM
same,TGI,SF-539,3.47 µM
same,CC50,SF-539; [5],6.62 µM
same,GI50,786-0,3.41 µM
same,GI50,HCT-15,3.01 µM
same,GI50,U-251,3.37 µM
same,GI50,UACC-257,4.27 µM
same,GI50,SK-MEL-5,1.79 µM
same,GI50,SNB-75,4.25 µM
same,GI50,OVCAR-8,4.03 µM
same,GI50,MOLT-4,1.55 µM
same,GI50,MCF7,2.64 µM
same,GI50,K562,2.78 µM
same,GI50,SF-295,2.52 µM
same,GI50,HCC 2998,1.71 µM
same,TGI,HCC 2998,3.84 µM
same,CC50,HCC 2998; [5],8.63 µM
same,GI50,COLO 205,2.22 µM
same,Activity,[3],Active
same,GI50,RPMI-8226,6.79 µM
same,GI50,NCI-H460,2.35 µM
same,GI50,DU-145,9.6 µM
same,GI50,OVCAR-3,4.41 µM
Cn1cc(-c2cc(-c3cn(C)c4ccccc34)[nH]n2)c2ccccc21,GI50,SR,3.46 µM
same,GI50,SF-268,16 µM
same,GI50,HCT-116,19 µM
same,GI50,OVCAR-4,34.9 µM
same,GI50,SNB-19,27 µM
same,GI50,CCRF-CEM,14.4 µM
same,GI50,Hs-578T,18.5 µM
same,GI50,EKVX,27.2 µM
same,GI50,NCI-H226,19.8 µM
same,GI50,T47D,79.7 µM
same,GI50,LOX IMVI,5.38 µM
same,GI50,[2],15.4 µM
same,GI50,OVCAR-5,> 100 µM
same,GI50,SW-620,> 100 µM
same,GI50,UO-31,37.6 µM
same,GI50,SK-OV-3,31.6 µM
same,GI50,A549,16.3 µM
same,Activity,[4],Active
same,GI50,TK-10,37.4 µM
same,GI50,IGROV-1,8.9 µM
same,GI50,HOP-62,17.3 µM
same,GI50,NCI-H23,22 µM
same,GI50,HT-29,5.35 µM
same,GI50,RXF 393,14.7 µM
same,GI50,M14,> 100 µM
same,GI50,NCI-H522,22.1 µM
same,GI50,CAKI-1,> 100 µM
same,GI50,UACC-62,16.4 µM
same,GI50,MDA-MB-231,8.06 µM
same,GI50,NCI/ADR-RES,27.6 µM
same,GI50,A498,19.6 µM
same,GI50,ACHN,7.67 µM
same,GI50,SK-MEL-2,57.5 µM
same,GI50,BT-549,15.9 µM
same,GI50,Malme-3M,93.1 µM
same,GI50,NCI-H322M,> 100 µM
same,GI50,SK-MEL-28,> 100 µM
same,GI50,HOP-92,2.06 µM
same,GI50,PC-3,8.11 µM
same,GI50,KM12,4.58 µM
same,GI50,SF-539,16.2 µM
same,GI50,786-0,14.1 µM
same,GI50,HCT-15,8.68 µM
same,GI50,U-251,12.9 µM
same,GI50,SN12C,1.95 µM
same,GI50,UACC-257,80.6 µM
same,GI50,SK-MEL-5,13.1 µM
same,GI50,SNB-75,18.4 µM
same,GI50,OVCAR-8,28.8 µM
same,GI50,MOLT-4,4.75 µM
same,GI50,MCF7,3.95 µM
same,GI50,K562,42.1 µM
same,GI50,SF-295,17.1 µM
same,GI50,HCC 2998,4.74 µM
same,GI50,COLO 205,7.98 µM
same,GI50,RPMI-8226,37.8 µM
same,GI50,NCI-H460,4.48 µM
same,GI50,DU-145,15.6 µM
same,GI50,OVCAR-3,28.4 µM
